# Experiment: Metabolite profiling of plasma and urine from human subjects after administration of Compound I (HPLC-MS)
# Type: in vivo
# Conditions: human subjects dosed with Compound I; LC-MS detection
# Procedure: Metabolites 1-39 were isolated from human, rat or dog urine, plasma, or feces after administration of Compound I in connection with pharmacokinetic and toxicokinetic studies. The identity of the metabolites were determined after isolation of the metabolite using HPLC methods. Tandem MS/MS analysis and higher order MS^n experiments were conducted as required to elucidate structural information.
# Plasma samples from all subjects were pooled by subject and/or by time point. The pooled plasma samples were prepared for HPLC-Radiometric analysis as follows: Aliquots of the pooled plasma samples were initially extracted with approximately two equivalent (W/V) volumes of 1% formic acid in HPLC-grade acetonitrile, followed by vigorous vortexing, and centrifugation to remove denatured plasma proteins. The supernatant was reserved and passed through a pre-conditioned Waters C-18 Solid phase extraction cartridge, and the filtrate retained. The SPE cartridge was retained. The remaining plasma pellet was then extracted three times with 1% formic acid in HPLC-grade acetonitrile/water (90/10), with centrifugation after each extraction. All supernatants were reserved. Each formic acid/acetonitrile/water extraction supernatant was used to elute the SPE cartridge. The SPE cartridge was then rinsed with 1% formic acid in methanol. All eluants were retained, combined, and evaporated under a stream of nitrogen at 30° C. The remainder of this extraction was reconstituted in approximately 0.6 ml of 0.1% formic acid in water, vortexed and centrifuged to remove particulate matter. The supernatant was then analyzed by HPLC-Flow Radiometry and HPLC-MS.
# Aliquots of approximately equal amounts of urine from each of the subjects were pooled to represent appropriate time intervals post-dose. Prior to HPLC-Radiometric analysis, each pooled urine sample was centrifuged at 4,000 rpm for 10 min to remove particulate matter, then analyzed directly.
# All samples were analyzed by either HPLC-Flow radiometry or HPLC-MS using analytical systems that were as identical as practicable. The HPLC-Flow Radiometry system consisted of an Agilent HP 1100 series Quaternary pump, Autosampler, and UV detector interfaced with a Raytest Ramona-90 flow scintillation detector with a 500 μL liquid scintillation cell. […] Mobile phase “A” consisted of 0.1% formic acid in HPLC-grade water, with mobile phase “B” consisting of HPLC-grade methanol/acetonitrile (1:1). Elution of analytes was achieved through use of a linear increasing gradient of mobile phase “B”. Two different gradient elution methods were employed at various times as needed. Chromatographic conditions for these two methods are outlined below in Tables 3 and 4. […]
row,Compound,Matrix in which the metabolite was observed/found
1,"N#CCC(C1CCCC1)n1cc(-c2ncnc3c2C(O)C(O)N3)cn1 (stereo not shown) [Compound 40, 3-cyclopentyl-3-(4-(5,6-dihydroxy-6,7-dihydro-5H-pyrrolo[2,3-d]pyrimidin-4-yl)-1H-pyrazol-1-yl)propanenitrile]",plasma and urine
2,"N#CCC(C1CCCC1)n1cc(-c2ncnc3c2ccn3C2OC(C(=O)O)C(O)C(O)C2O)cn1 (stereo not shown) [Compound 41, 6-(4-(1-(2-cyano-1-cyclopentylethyl)-1H-pyrazol-4-yl)-7H-pyrrolo[2,3-d]pyrimidin-7-yl)-3,4,5-trihydroxytetrahydro-2H-pyran-2-carboxylic acid]",urine
3,"N#CCC(C1CCCC1)n1cc(-c2[nH]c(=O)nc3c2CC(=O)N3)cn1 (stereo not shown) [Compound 31, 3-cyclopentyl-3-(4-(2,6-dioxo-3,5,6,7-tetrahydro-2H-pyrrolo[2,3-d]pyrimidin-4-yl)-1H-pyrazol-1-yl)propanenitrile]",urine
4,"N#CCC(C1CCCC1)n1cc(-c2nc(O)nc3c2C(=O)CN3)cn1 (stereo not shown) [Compound 32, 3-cyclopentyl-3-(4-(2-hydroxy-5-oxo-6,7-dihydro-5H-pyrrolo[2,3-d]pyrimidin-4-yl)-1H-pyrazol-1-yl)propanenitrile]",plasma and urine

# Reference: patent publication US9512161B2, “Hydroxyl, keto, and glucuronide derivatives of 3-(4-(7H-pyrrolo[2,3-D]pyrimidin-4-yl)-1H-pyrazol-1-yl)-3-cyclopentylpropanenitrile” (Incyte Corporation, priority 2009, dated 2016)
